Measurements published in patent US6545033B1, “Fused 1-(2,6-dichloro-4-trifluoromethylphenyl)-pyrazoles, the synthesis thereof and the use thereof as pesticides” (3-Dimensional Pharmaceuticals, Inc., priority 1999, dated 2003).

Key:
[1] = tested on: cat fleas (Ctenocephalides felis), CO Fleas; experiment: In vivo cat flea contact assay, CO fleas; settings: Ctenocephalides felis, topical; contact with treated filter disk in vial, about 24-30 hours; mM = concentration of the DMSO solution, about 1 μL applied; read-out: LD50 (mM), CO Fleas
Protocol: (§1) This example describes an in vivo assay to screen compounds for their ability to kill cat fleas via contact.
(§2) Test compounds were dissolved in dimethylsulfoxide (DMSO) at concentrations ranging from about 0.05 mM to about 100 mM. About 1 μL of dissolved test compound was dispensed onto a 6 mm (diameter) GF/C filter disk (filter material available from Whatman Inc., Clifton, N.J.) in the bottom of a 4 mL screw-top glass vial and allowed to air dry 24-48 hours. Positive control vials were prepared in the same manner except that no test compounds were dissolved in the DMSO. About 20 newly emerged cat fleas (Ctenocephalides felis) were sedated by refrigeration at 0-4° C. and transferred to each vial. Each vial was sealed with a thin, perforated Teflon™ septum secured by an open top screw cap and held vertically in the dark. After about 24-30 hours, the healthy, moribund, and dead cat fleas in each vial were counted. The percentage of dead cat fleas in each vial was then calculated using the formula M=100(D−(FC/100))/(F−(FC/100)), in which M is the percentage of dead cat fleas due to the addition of the test compound, D is the number of dead cat fleas in the test vial, F is the total number of cat fleas in the test vial, and C is the percentage of dead cat fleas in the control vials.

[2] = target: T1, Housefly GABA receptors (Musca domestica, UniProt Q75NA5); experiment: In vitro assay of binding to housefly GABA receptors (3H-EBOB displacement, housefly neuronal membranes); settings: for Compounds with the most activity (housefly 3H-EBOB binding): housefly neuronal membranes
T1 sequence (Q75NA5 30-576): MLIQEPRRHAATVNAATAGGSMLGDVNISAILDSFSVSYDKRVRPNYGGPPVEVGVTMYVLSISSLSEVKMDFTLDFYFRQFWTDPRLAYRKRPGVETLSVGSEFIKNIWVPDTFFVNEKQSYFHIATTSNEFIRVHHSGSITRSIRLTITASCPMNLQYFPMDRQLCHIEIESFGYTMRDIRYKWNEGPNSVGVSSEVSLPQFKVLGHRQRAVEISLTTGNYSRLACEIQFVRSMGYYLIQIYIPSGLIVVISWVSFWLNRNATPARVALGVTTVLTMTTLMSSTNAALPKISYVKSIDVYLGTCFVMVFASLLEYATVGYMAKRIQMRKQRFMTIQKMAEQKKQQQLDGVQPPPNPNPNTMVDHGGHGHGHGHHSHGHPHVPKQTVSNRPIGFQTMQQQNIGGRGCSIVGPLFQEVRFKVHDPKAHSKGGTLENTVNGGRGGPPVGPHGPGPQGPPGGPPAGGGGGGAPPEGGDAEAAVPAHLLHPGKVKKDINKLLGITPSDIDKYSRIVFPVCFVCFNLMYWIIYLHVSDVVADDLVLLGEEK
Protocol: Newly emerged houseflies (Musca domestica, available from Rincon-Vitova Insectaries, Inc., Ventura, Calif.) were sedated with carbon dioxide gas, collected in 50 mL polypropylene conical tubes, and immediately frozen by submersion in liquid nitrogen. Unless specified, all of the following work was performed at 0-4° C. After removal from liquid nitrogen, the tubes of frozen houseflies were shaken vigorously by hand to decapitate the houseflies. […] Contaminating wings were removed by holding a vacuum nozzle approximately 4 cm above the heads, and contaminating legs were separated from the heads by passage through a #15 mesh screen. All remaining debris were removed from the pool of heads using forceps. The purified heads were collected in 50 mL polypropylene conical tubes and stored in liquid nitrogen until processed further.
About 13 g of purified housefly heads were suspended in about 65 mL of 10% sucrose buffer (10% sucrose (w/w) in 10 mM Tris, pH 7.5). The heads were homogenized for about 1 minute, using a Tissumizer™ homogenizer equipped with a SDT-100EN probe (available from Tekmar-Dohrmann, Cincinnati, Ohio) running at 70% of its maximum speed. The extract was further homogenized by about 5 passes through a 40 mL Dounce tissue grinder. The extract was then centrifuged at about 500×g for about 5 minutes to pellet large debris. The supernatant was collected; the pellet was washed with an additional 65 mL of 10% sucrose buffer and centrifuged at 500×g for about 5 minutes. The second supernatant was collected and combined with the first supernatant, and the pool was filtered through a 100μ CellMicroSieve™ mesh to remove residual debris (available from BioDesign of New York, Carmel, N.Y.).
Neuronal membranes containing active GABA receptors were collected via sucrose density centrifugation by the following method. About 8 mL of 35% sucrose buffer (35% sucrose (w/w) in 10 mM Tris, pH 7.5), were dispensed into each of six 38 mL ultracentrifuge tubes. These layers were overlaid with about 8 mL of 20% sucrose buffer (20% sucrose (w/w) in 10 mM Tris, pH 7.5), and finally overlaid with about 20 mL of filtered extract supernatant. The tubes were centrifuged at about 120,000×g for about 100 min at 4° C. After centrifugation, the 10% sucrose layer and most of the 20% sucrose layer were removed by aspiration. The membranes at the interface of the 20% sucrose and 35% sucrose layers were collected, pooled, diluted with 10% sucrose buffer, and centrifuged at about 120,000×g for about 40 min at 4° C. After centrifugation, the supernatant was discarded, and the pellets resuspended in about 6.5 mL of assay buffer (10 mM phosphate, 300 mM NaCl, pH 7.5) using a 10 mL Potter-Elvehjem tissue grinder with a Teflon® pestle. Protein concentration was determined by the Bio-Rad Protein Assay (available from Bio-Rad Laboratories, Hercules, Calif.) using bovine serum albumin as a standard. The membranes were aliquoted and stored in liquid nitrogen for up to 2 months before use.
Housefly neuronal membranes were prepared as described above from housefly heads. Test compounds were dissolved in dimethylsulfoxide (DMSO) at concentrations ranging from about 2 nM to about 100 mM. About 1 μL of a dissolved test compound was dispensed into a well of a 96-well polystyrene plate. About 100 μL of ice cold assay buffer (10 mM phosphate, 300 mM NaCl, pH 7.5) containing 5.2 nM 4′-Ethynyl-4-n-[2,3-^3H2]propylbicycloorthobenzoate (^3H-EBOB, 38 Ci/mmol, available from NEN Life Science Products, Boston, Mass.) was added to the well, followed by about 100 μL of ice cold assay buffer containing about 0.5-1.0 mg/mL housefly neuronal membranes. Control wells were prepared the same way except that the housefly neuronal membranes were omitted from the “negative” wells, and the test compounds were omitted from the “positive” wells. […]

[3] = tested on: cat fleas (Ctenocephalides felis), NC Fleas; experiment: In vivo cat flea contact assay, NC fleas; settings: contact with treated filter disk in vial, about 24-30 hours; mM = concentration of the DMSO solution, about 1 μL applied
Protocol: as §1, §2

SMILES	LC50 [1] [mM]	Compounds with the most activity (housefly 3H-EBOB binding) [2]	LD50 (mM), NC Fleas [3] [mM]	IC50 ([2]; displacement of 5.2 nM 3H-EBOB, housefly head neuronal membranes, about 45 min at about 24° C., read-out: IC50 (nM), Fly Head) [nM]
FC(F)(F)c1cc(Cl)c(-n2cc3c(n2)CSC3)c(Cl)c1 [Compound 3, 2-[2,6-Dichloro-4-(trifluoromethyl)phenyl]-4,6-dihydrothieno-[3,4-c]pyrazole]	1.7	most activity	3.0	–
FC(F)(F)c1cc(Cl)c(-n2cc3c(n2)CCC3)c(Cl)c1 [Compound 11, 2-[2,6-Dichloro-4-(trifluoromethyl)phenyl]-2,4,5,6-tetrahydrocyclopenta[c]pyrazole]	8	most activity	7	83
FC(F)(F)c1cc(Cl)c(-n2cc3c(n2)CCCCC3)c(Cl)c1 [Compound 15, 2-[2,6-Dichloro-4-(trifluoromethyl)phenyl]-2,4,5,6,7,8-hexahydrocyclohepta[c]pyrazole]	29.5	most activity	33.5	–
